Measured values reported in ChEMBL document CHEMBL4043238, “Discovery of N-substituted 7-azaindoles as Pan-PIM kinase inhibitors - Lead series identification - Part II” (Bioorg Med Chem Lett, 2017).
pIC50: −log10 of the molar value. Converted amounts (≈) assume the structure as drawn.

What was measured:
[1] = target: Serine/threonine-protein kinase pim-2 (Homo sapiens, UniProt Q9P1W9); assay: Inhibition of PIM2 (unknown origin) assessed as reduction in BAD phosphorylation at Ser112 residues by TR-FRET assay
[2] = target: T1, Serine/threonine-protein kinase pim-1 (Homo sapiens, UniProt P11309); assay: Inhibition of PIM1 (unknown origin) assessed as reduction in BAD phosphorylation at Ser112 residues by TR-FRET assay
[3] = target: Serine/threonine-protein kinase pim-3 (Homo sapiens, UniProt Q86V86); assay: Inhibition of PIM3 (unknown origin) assessed as reduction in BAD phosphorylation at Ser112 residues by TR-FRET assay
[4] = target: T1, Serine/threonine-protein kinase pim-1; assay: Inhibition of PIM1 in human KG1 cells assessed as reduction in BAD phosphorylation; type: cell-based
[5] = Cmax in mouse at 3 mg/kg, iv or 10 mg/kg, po administered as single dose; type: ADME, organism-based; conditions: in vivo
[6] = Oral bioavailability in mouse at 10 mg/kg administered as single dose; type: ADME, organism-based; conditions: in vivo
[7] = Permeability from apical to basolateral side in human Caco2/TC7 cells at 5 uM; type: ADME, cell-based; conditions: Caco-2, read-out: permeability
[8] = Clearance in mouse at 3 mg/kg, iv administered as single dose; type: ADME, organism-based; conditions: in vivo
[9] = Half life in mouse at 10 mg/kg, po administered as single dose; type: ADME, organism-based; conditions: in vivo
KG-1 = assay: Antiproliferative activity against human KG1 cells; type: functional, cell-based
[10] = Clearance in human liver microsomes assessed as compound extraction at 5 uM; type: ADME, microsome; conditions: read-out: CLH
[11] = Thermodynamic solubility of the compound at pH 7.4; type: physicochemical; conditions: buffer, read-out: Therm_solubility
[12] = Half life in mouse at 3 mg/kg, iv administered as single dose; type: ADME, organism-based; conditions: in vivo
[13] = Volume of distribution at steady state in mouse at 3 mg/kg, iv administered as single dose; type: ADME, organism-based; conditions: in vivo, read-out: Vdss
[14] = AUC (0 to infinity) in mouse at 10 mg/kg, po administered as single dose; type: ADME, organism-based; parameters: dose 10 mg/kg, route oral, time infinity; conditions: in vivo
Cytochrome P450 3A4 [15] = target: T2, Cytochrome P450 3A4 (Homo sapiens, UniProt P08684); assay: Inhibition of CYP3A4 (unknown origin) using testosterone as substrate; type: ADME
Liver [16] = assay: Stability in rat liver microsomes; type: ADME, microsome
Cytochrome P450 3A4 [17] = target: T2, Cytochrome P450 3A4; assay: Inhibition of CYP3A4 (unknown origin) using midazolam as substrate; type: ADME
Liver [18] = assay: Stability in mouse liver microsomes; type: ADME, microsome
Liver [19] = assay: Stability in human liver microsomes; type: ADME, microsome
[20] = target: Voltage-gated inwardly rectifying potassium channel KCNH2 (Homo sapiens, UniProt Q12809); assay: Inhibition of human ERG by patch clamp assay

| Structure (SMILES) | pIC50 [1] | pIC50 [2] | pIC50 [3] | also measured |
| --- | --- | --- | --- | --- |
| NC(=O)c1cc(Cl)c2c(Cl)c(C3=CCOCC3)n(C3CCCNC3)c2n1 (centres undefined) | 6.75 | 6.99 |  |  |
| NC(=O)c1cc(Cl)c2c(Cl)c(I)n(CC3CCNCC3)c2n1 | 7.00 | 8.40 | 7.92 |  |
| NCC1CCC(n2c(I)c(Cl)c3c(Cl)cc(C(N)=O)nc32)CC1 (centres undefined) | 8.05 | 8.52 |  |  |
| NC(=O)c1cc(Cl)c2c(Cl)c(C(F)(F)F)n(C3CCCNC3)c2n1 (centres undefined) | 7.60 | 7.17 |  |  |
| NC(=O)c1cc(Cl)c2c(Cl)c(I)n(C3CNC3)c2n1 | 5.37 | 6.60 | 6.46 |  |
| NC(=O)c1cc(Cl)c2c(Cl)c(I)n(CC3CCCN3)c2n1 (racemic) | 6.42 | 7.92 | 7.35 |  |
| NC(=O)c1cc(Cl)c2c(Cl)c(C3CC3)n([C@@H]3CCCNC3)c2n1 | 7.66 | 8.40 |  | pIC50 (Cytochrome P450 3A4 [15]): < 4.52; Papp A→B at 5 µM [7]: 3.6 ×10⁻⁶ cm/s; pIC50 (KG-1): 6.09; Stability (Liver [16]): 8%; pIC50 (Cytochrome P450 3A4 [17]): < 4.52; Stability (Liver [18]): 11%; Stability (Liver [19]): 3%; pIC50 [20]: 5.82 |
| COCC1CC1c1c(Cl)c2c(Cl)cc(C(N)=O)nc2n1C1CCCNC1 (centres undefined) | 6.53 | 7.38 |  |  |
| NC(=O)c1cc(Cl)c2c(Cl)c(I)n(C3CCCNCC3)c2n1 (racemic) | 7.82 | 9.00 | 8.52 |  |

The next lines start with results.

| pIC50 [1] | pIC50 [2] | pIC50 [3] | Structure (SMILES) | also measured |
| --- | --- | --- | --- | --- |
| 6.18 | 7.49 | 7.19 | NC(=O)c1cc(Cl)c2c(Cl)c(I)n(C3CCNC(=O)C3)c2n1 (racemic) |  |
| 6.94 | 8.10 | 7.60 | NC(=O)c1cc(Cl)c2c(Cl)c(I)n(C3CCC(O)CC3)c2n1 (centres undefined) |  |
| 7.82 | 8.52 |  | CSc1c(Cl)c2c(Cl)cc(C(N)=O)nc2n1C1CCCNC1 (centres undefined) |  |
| < 4.52 | 6.60 |  | CN1CCN(c2ccc(-c3cc4c(Cl)cc(C(N)=O)nc4n3C)cc2)CC1 |  |
| 8.22 | 9.00 | 8.70 | NC(=O)c1cc(Cl)c2c(Cl)c(I)n(C3CCCNC3)c2n1 (racemic) | pIC50 [4]: 7.33; Cmax [5]: 3500 ng/mL; bioavailability [6]: 54%; Papp A→B at 5 µM [7]: 2.6 ×10⁻⁶ cm/s; clearance [8]: 6 mL/min/kg; half-life [9]: 2.3 h; pIC50 (KG-1): 7.07; hepatic extraction ratio at 5 µM [10]: 0.35; solubility thermodynamic [11]: 42 µM (≈ 18.4 µg/mL); half-life [12]: 1.5 h; Vd [13]: 0.55 L/kg; AUC(0-inf) [14]: 15000 ng·h/mL |
| 7.55 | 8.70 | 8.40 | NC(=O)c1cc(Cl)c2c(Cl)c(I)n(C3CCNCC3)c2n1 |  |
| 6.83 | 8.52 | 7.77 | NC(=O)c1cc(Cl)c2c(Cl)c(I)n(CCC3CCNCC3)c2n1 |  |
| 7.05 | 8.10 | 7.55 | NC(=O)c1cc(Cl)c2c(Cl)c(I)n(C3CCCC(O)C3)c2n1 (racemic) |  |
